Our source for the IC50 values is US20110301142A1, “ANTAGONISTS OF LYSOPHOSPHATIDIC ACID RECEPTORS” (priority 2008, published 2011).

The target in experiment [1] is T1, human LPA1 (Homo sapiens, UniProt Q92633).
T1 construct: the full-length cDNA for human LPA1 was obtained by PCR of the reverse transcription reaction; expressed in transfected cells
The experiment can be described thus: LPA1 calcium flux assay (HLPA1 Ca Flux). Format: cell-based. Conditions: Human LPA1 expressing CHO cells, stimulated with 10 nM LPA. In a few lines: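 CHO cells stably expressing cloned human LPA1, serum-starved overnight and loaded with Calcium 4 dye, were preincubated 30 min at room temperature with compound. Cells were then challenged with 10 nM LPA and intracellular Ca2+ measured; IC50 values came from titration curves.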

The target in experiment [2] is T2, human LPA3 (Homo sapiens, UniProt Q9UBY5).
T2 construct: The full-length cDNA fragment for human LPA3 was obtained by PCR from the vector; expressed in transfected cells; cDNA from the Missouri S&T cDNA Resource Center
T2 sequence (Q9UBY5 1-353): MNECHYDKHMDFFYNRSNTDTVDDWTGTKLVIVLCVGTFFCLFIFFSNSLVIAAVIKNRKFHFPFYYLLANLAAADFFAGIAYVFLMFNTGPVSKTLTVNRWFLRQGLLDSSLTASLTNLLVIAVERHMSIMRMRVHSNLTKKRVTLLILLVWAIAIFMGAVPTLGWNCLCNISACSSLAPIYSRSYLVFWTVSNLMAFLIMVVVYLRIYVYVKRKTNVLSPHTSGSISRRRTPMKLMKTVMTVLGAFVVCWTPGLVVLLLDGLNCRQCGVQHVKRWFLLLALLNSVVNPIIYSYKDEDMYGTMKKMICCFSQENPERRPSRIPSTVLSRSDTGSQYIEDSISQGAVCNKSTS
The experiment can be described thus: LPA3 calcium flux assay. The conditions noted are these: Human LPA3 expressing CHO cells, stimulated with 10 nM LPA; read-out: HLPA3 Ca Flux IC50. The format is cell-based. In a few lines:
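Stably transfected CHO cells, serum-starved overnight, loaded with Calcium 4 dye 1 h at 37 °C in HBSS/20 mM Hepes with 0.3% fatty-acid-free HSA. Compounds preincubated 30 min at room temperature, then cells stimulated with 10 nM LPA; intracellular Ca2+ read by fluorescence; IC50 from titration curves.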

T1 sequence (Q92633 whole entry): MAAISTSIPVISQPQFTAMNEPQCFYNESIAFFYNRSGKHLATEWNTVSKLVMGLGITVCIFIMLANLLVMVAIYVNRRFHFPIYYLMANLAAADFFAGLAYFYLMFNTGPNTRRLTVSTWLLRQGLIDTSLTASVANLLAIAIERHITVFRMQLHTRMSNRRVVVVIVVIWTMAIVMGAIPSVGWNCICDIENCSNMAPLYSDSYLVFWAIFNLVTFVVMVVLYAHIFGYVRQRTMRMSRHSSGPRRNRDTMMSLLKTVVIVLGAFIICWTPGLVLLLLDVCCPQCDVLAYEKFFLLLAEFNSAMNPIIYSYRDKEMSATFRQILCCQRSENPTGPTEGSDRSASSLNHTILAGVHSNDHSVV

With `Cc1noc(-c2ccc(Cn3cncc3C(=O)O)cc2)c1NC(=O)OC(C)c1ccccc1Cl` (stereo not shown) [Compound 1-3, 3-(4-{4-[1-(2-Chloro-phenyl)-ethoxycarbonylamino]-3-methyl-isoxazol-5-yl}-benzyl)-3H-1-imidazole-4-carboxylic acid], the IC50 was less than 0.3 µM in experiment [1] and 1 to 50 µM in experiment [2].

Turning to `Cc1noc(-c2ccc(Cc3ccc(CC(=O)O)cc3)cc2)c1NC(=O)OC(C)c1ccccc1Cl` (stereo not shown) [Compound 1-20, [4-(4-{4-[1-(2-Chloro-phenyl)-ethoxycarbonylamino]-3-methyl-isoxazol-5-yl}-benzyl)-phenyl]-acetic acid], the values for the half-maximal inhibitory concentration (IC50) in experiment [1] and in experiment [2] were less than 0.3 µM and 1 to 50 µM, respectively.
